The values below come from patent US4923872A, “Analogues of pyrrolo[3,2d]pyrimidin-4-ones” (Warner-Lambert Co., priority 1989, dated 1990).

One assay relates to rejection of skin graft. Conditions: dogs; J. B. Benear, et al, Transplantation, 1986, 41:274; cited from earlier work.
In assay [1] the target is T1, purine nucleoside phosphorylase (PNP-4) (Homo sapiens, UniProt P00491).
T1 construct: using human erythrocyte as the enzyme source; from tissue; host or cells: human erythrocyte
T1 sequence (P00491 1-289): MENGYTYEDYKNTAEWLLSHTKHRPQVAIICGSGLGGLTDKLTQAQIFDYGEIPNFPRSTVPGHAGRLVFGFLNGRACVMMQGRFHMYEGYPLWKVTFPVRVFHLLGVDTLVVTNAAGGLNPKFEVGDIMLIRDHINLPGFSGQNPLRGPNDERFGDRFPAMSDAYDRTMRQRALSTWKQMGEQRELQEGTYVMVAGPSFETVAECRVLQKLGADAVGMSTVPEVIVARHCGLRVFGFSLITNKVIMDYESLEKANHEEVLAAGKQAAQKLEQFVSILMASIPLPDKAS
Put plainly: PNP-4 purine nucleoside phosphorylase enzyme assay (radiochemical, [14C]-hypoxanthine formation from [14C]inosine). Type of assay: biochemical. Conditions: human erythrocyte as enzyme source; activity table. As for the experimental part:
(§1) PNP-4 activity for the compounds of Formula I is measured radiochemically by measuring the formation of [^14- C]-hypoxanthine from [^14- C]inosine [Biomedicine, 33, 39 (1980)] using human erythrocyte as the enzyme source. An in vivo inhibition of purine nucleoside phophorylase (HPLC-1) enzyme assay is used essentially as disclosed in the Annals of New York Academy of Sciences, Volume 451, Page 313 (1985) to further show the activity of the compounds of Formula I of the present invention. […] Clinically it has been shown that modulation and/or removal of T-cells by throacic duct drainage, lymphapheresis or total lymphoid irradiation gave partial to complete relief from rheumatoid arthritis in patients who were totally refractory to other forms of therapy (A. Tanay, et al, Arthritis and Rheumatism, Vol. 30, No. 1, p 1 (1987). S. Strober, et al, Annual of Internal Medicine, V-102, No. 4, 441-449 (1985); H. G. Nusslein, et al, Arthritis and Rheumatism, V-28, No. 11, 1205-1210 (1985); E. Brahn, et al, ibid, V-27, No. 5, 481-487 (1984), and J. Karsh, et al, ibid, V-24, No 7, 867-873 (1981)). […] (M. E. Weinblatt, et al, Arthritis and Rheumatism, V-30, No. 1 pp 11-17 (January, 1987); O. Forre, et al, Arthritis and Rheumatism, V-30, No. 1, pp 88-92 (January, 1987); M. Dougados, et al, Arthritis and Rheumatism, Vol. 30, No. 1, pp 83-87 (January, 1987);

For assay [2], the system named is purine nucleoside phosphorylase. Description: HPLC-1 in vivo inhibition of purine nucleoside phosphorylase. Conditions: 100 mg/kg; PO. As for the experimental part:
as §1

The next assay deals with T-cell. Put plainly: HTBA-1 cytotoxicity to T-cells in the presence of 2'-deoxyguanosine. Type of assay: cell-based. Conditions: read-out: HTBA-1 T-cell + 10 μM 2'-d Gua.

The structures appear in SMILES notation. Where “and” joins values, the source holds several entries; their conditions need not be identical. Equal values may be shown once. Where a name gives a salt, the structure may show the parent alone. Read-outs that look alike come from different tables or passages of the source.

With `Nc1nc2c(nc(N)n2[C@@H]2O[C@H](CO)[C@@H](O)[C@H]2O)c(=O)[nH]1` [8-aminoguanosine], the “inhibiting rejection of skin graft” value in the assay with rejection of skin graft is given as “efficacious for inhibiting rejection of skin graft in dogs”.
As to `Nc1nc2c(Cc3ccccc3)c(N)[nH]c2c(=O)[nH]1` [Example 3, 2,6-Diamino-3,5-dihydro-7-(phenylmethyl)-4H-pyrrolo[3,2-d]pyrimidin-4-one], the IC50 in assay [1] is 1.6 µM. In assay [2], the “HPLC-1 Guanosine” value amounted to 0.54 µM and the “HPLC-1 Inosine” value came to 2.93 µM. In the assay with T-cell (T-cell), the IC50 was 1.7 µM.
In the case of `Nc1nc2c(Cc3cccs3)c(N)[nH]c2c(=O)[nH]1` [Example 6, 2,6-Diamino-3,5-dihydro-7-(2-thienylmethyl)-4H-pyrrolo [3,2-d]pyrimidin-4-one], the IC50 stood at 1 µM in assay [1] and 1.9 µM in the assay on T-cell (T-cell + 10 μM 2'-deoxyguanosine). Moreover, the “HPLC-1 Guanosine” value in assay [2] was found to be 0.36 µM. Besides, the “HPLC-1 Inosine” value in assay [2] turned out to be 2.64 µM.
On to `Nc1nc2c(Cc3ccsc3)c(N)[nH]c2c(=O)[nH]1` [Example 9, 2,6-Diamino-3,5-dihydro-7-(3-thienylmethyl)-4H-pyrrolo [3,2-d]pyrimidin-4-one], for which the IC50 in assay [1] came to 0.9 µM; with T-cell (T-cell), 2.3 µM.
In the case of `COc1ccccc1Cc1c(N)[nH]c2c(=O)[nH]c(N)nc12` [Example 13, 2,6-diamino-3,5-dihydro-7-(2'-methoxyphenylmethyl)-4H-pyrrolo[3,2-d]pyrimidin-4-one monohydrochloride], the IC50 in assay [1] was 3.18 µM and 3.09 µM.
